The structures appear in SMILES notation. In brackets after ≈: the same amount, converted by molar mass.

The text below walks through data of US9181234B2, “Antibacterial compounds” (priority 2010, dated 2015).

Series [1] relates to Streptococcus pyogenes (Isolate ID ATCC 51339). Nature of the series: Antibacterial activity, MIC, S. pyogenes. The format is cell-based. The settings on record: Streptococcus pyogenes, ATCC51339, Gram positive strain; broth microdilution or agar dilution. The procedure, abridged:
(§1)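 Readout is the MIC, established according to CLSI standard M7-A7 using either agar dilution or broth microdilution.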
A general note: Dilution methods test growth across graded concentrations, often in twofold steps.

Series [2] deals with Enterococcus faecalis (Isolate ID ATCC 29212). Nature of the series: Antibacterial activity, MIC, E. faecalis. The settings on record: Enterococcus faecalis, ATCC29212; Gram positive strain; broth microdilution or agar dilution. The format is cell-based. The method, then: Bacterial Assay: Determination of Antibacterial Activity
Compounds of the invention were tested for antimicrobial activity by susceptibility testing in liquid or on solid media. MICs for compounds against each strain were determined by the broth microdilution or agar dilution method according to the guidelines of the Clinical Laboratories and Standards Institute, formerly the National Committee for Clinical Laboratory Standards (Clinical Laboratories and Standards Institute. Methods for Dilution Antimicrobial Susceptibility Tests for Bacteria That Grow Aerobically; Approved Standard—Seventh Edition. Document M7-A7. CLSI, Wayne, Pa., 2006; Clinical Laboratories and Standards Institute. The gram positive bacterial strains tested include S. aureus (Staphylococcus aureus (Isolate ID ATCC 29213)), E. faecalis (Enterococcus faecalis (Isolate ID ATCC 29212)) and S. pyogenes (Streptococcus pyogenes (Isolate ID ATCC 51339)). The gram negative bacterial strains tested include H. influenzae (Haemophilus influenzae (Isolate ID ATCC 49247))

Series [3] concerns Staphylococcus aureus (Isolate ID ATCC 29213). Nature of the series: Antibacterial activity, MIC, S. aureus. In kind it is cell-based. Conditions: Staphylococcus aureus, ATCC29213, Gram positive strain; broth microdilution or agar dilution. An outline of the steps: as §1
Series [4] can be described thus: physchem. Conditions: kinetic from dmso stock. An outline of the steps: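 DMSO doubling dilutions were diluted twenty-fold into 100 mM citrate (pH 4), PBS (pH 7.4) or carbonate-bicarbonate (pH 9). After 24 h equilibration at room temperature, absorbance was read at 620 nm. The reported value is the highest concentration without measurable precipitate.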
The subject of series [5] is Haemophilus influenzae (Isolate ID ATCC 49247). Kind of series: Antibacterial activity, MIC, H. influenzae. The settings on record: Haemophilus influenzae, ATCC49247; Gram negative strain; broth microdilution or agar dilution. In kind it is cell-based. The procedure, abridged: as §1
The mark [6] stands for this setting: pH 7.4, aqueous buffer, Max Solubility.
[7] abbreviates: pH 7.4, aqueous buffer, Solubility (pH 7.4).
[8] abbreviates: pH 7.4, aqueous buffer, Solubility Range.
[9] abbreviates: pH 7.4, aqueous buffer, Solubility Range (maximum solubility).
Where [10] appears, read: pH 9, aqueous buffer, Max Solubility.
Where [11] appears, read: pH 9, aqueous buffer, Solubility Range (maximum solubility).

For `CCNC(=O)Nc1nc2cc(-c3cnc(N4CCC(C)(C(=O)O)CC4)nc3)cc(-c3cccc(OC)n3)c2s1` [Compound 52], the MIC in series [1] was at most 0.25 µg/mL; in series [2], at most 0.25 µg/mL; in series [3] it was at most 0.25 µg/mL; in series [5] it was 1 to 16 µg/mL (≈ 1.83 to 29.2 µM). Moreover, the solubility (as a rule, the concentration that dissolves in the medium under given conditions) at 24 h was at least 800 µg/mL in series [4] (setting [6]), at least 800 µg/mL in series [4] (setting [7]), above 800 µg/mL in series [4] (setting [8]) and above 800 µg/mL in series [4] (setting [9]).
Turning to `CCNC(=O)Nc1nc2cc(-c3cnc(N4CCC(C)(C(=O)O)CC4)nc3)cc(-c3ccc(F)c(C)n3)c2s1` [Compound 53], the MIC in series [1] was at most 0.25 µg/mL; in series [2], at most 0.25 µg/mL; in series [3], at most 0.25 µg/mL; in series [5], 1 to 16 µg/mL (≈ 1.82 to 29.1 µM). Moreover, the solubility at 24 h in series [4] (setting [7]) was 25 µg/mL (≈ 45.5 µM); in series [4] (setting [8]), 12.5 to 400 µg/mL (≈ 22.7 to 728 µM); in series [4] (setting [10]) it was at least 800 µg/mL; in series [4] (setting [11]), above 800 µg/mL.
Take `CCNC(=O)Nc1nc2cc(-c3cnc(N4CCC(C)(C(=O)O)CC4)nc3)cc(-c3ncc(F)cc3F)c2s1` [Compound 54]: the MIC in series [1] was at most 0.25 µg/mL; in series [2], at most 0.25 µg/mL; in series [3] it was at most 0.25 µg/mL; in series [5] it was 1 to 16 µg/mL (≈ 1.81 to 28.9 µM). The solubility at 24 h in series [4] (setting [6]) was at least 800 µg/mL; in series [4] (setting [7]) it was at least 800 µg/mL; in series [4] (setting [8]) it was above 800 µg/mL; in series [4] (setting [9]), above 800 µg/mL.
For `CCNC(=O)Nc1nc2cc(-c3cnc(N4CCC(C)(C(=O)O)CC4)nc3)cc(-c3nccc(OC)c3F)c2s1` [Compound 55], the MIC was at most 0.25 µg/mL in series [1], at most 0.25 µg/mL in series [2], at most 0.25 µg/mL in series [3] and 0.25 to 1 µg/mL (≈ 0.442 to 1.77 µM) in series [5]. The solubility at 24 h in series [4] (setting [7]) is 400 µg/mL (≈ 707 µM); in series [4] (setting [8]), 400 to 800 µg/mL (≈ 707 to 1410 µM); in series [4] (setting [10]), at least 800 µg/mL; in series [4] (setting [11]), above 800 µg/mL.
Consider `CCNC(=O)Nc1nc2cc(-c3cnc(N4CCC(C)(C(=O)O)CC4)nc3)cc(-c3cnc(OC)cn3)c2s1` [Compound 56], for which the MIC in series [1] was at most 0.25 µg/mL; in series [2] it was at most 0.25 µg/mL; in series [3], at most 0.25 µg/mL; in series [5], 0.25 to 1 µg/mL (≈ 0.456 to 1.82 µM). Further, the solubility at 24 h is at least 800 µg/mL in series [4] (setting [6]), at least 800 µg/mL in series [4] (setting [7]), above 800 µg/mL in series [4] (setting [8]) and above 800 µg/mL in series [4] (setting [9]).
As for `CCNC(=O)Nc1nc2cc(-c3cnc(N4CCC(C)(C(=O)O)CC4)nc3)cc(-c3cc(=O)n(C(C)C)cn3)c2s1` [Compound 57], the MIC lay in the range of 0.25 to 1 µg/mL (≈ 0.434 to 1.73 µM) in series [1], 0.25 to 1 µg/mL (≈ 0.434 to 1.73 µM) in series [2], 1 to 16 µg/mL (≈ 1.73 to 27.7 µM) in series [3] and 1 to 16 µg/mL (≈ 1.73 to 27.7 µM) in series [5]. Moreover, the solubility at 24 h in series [4] (setting [7]) was 200 µg/mL (≈ 347 µM); in series [4] (setting [8]) it was 12.5 to 400 µg/mL (≈ 21.7 to 694 µM); in series [4] (setting [10]) it was 400 µg/mL (≈ 694 µM); in series [4] (setting [11]), 400 to 800 µg/mL (≈ 694 to 1390 µM).
In the case of `CCNC(=O)Nc1nc2cc(-c3cnc(N4CCC(C)(C(=O)O)CC4)nc3)cc(-c3ccc(C#N)c(C)n3)c2s1` [Compound 58], the MIC in series [1] was at most 0.25 µg/mL; in series [2], at most 0.25 µg/mL; in series [3], at most 0.25 µg/mL; in series [5], 1 to 16 µg/mL (≈ 1.8 to 28.7 µM). Moreover, the solubility at 24 h in series [4] (setting [7]) is 25 µg/mL (≈ 44.9 µM); in series [4] (setting [8]), 12.5 to 400 µg/mL (≈ 22.5 to 719 µM); in series [4] (setting [10]), 50 µg/mL (≈ 89.8 µM); in series [4] (setting [11]) it was 12.5 to 400 µg/mL (≈ 22.5 to 719 µM).
Consider `CCNC(=O)Nc1nc2cc(-c3cnc(N4CCC(C)(C(=O)O)CC4)nc3)cc(-c3ncc(C)cn3)c2s1` [Compound 59], for which the MIC in series [1], in series [2], in series [3] and in series [5] was at most 0.25 µg/mL in each case. The solubility at 24 h in series [4] (setting [6]) was at least 800 µg/mL; in series [4] (setting [7]) it was at least 800 µg/mL; in series [4] (setting [8]), above 800 µg/mL; in series [4] (setting [9]) it was above 800 µg/mL.
On to `CCNC(=O)Nc1nc2cc(-c3cnc(N4CCC(C)(C(=O)O)CC4)nc3)cc(-c3ncc(CC)cn3)c2s1` [Compound 60], for which the MIC in series [1] is at most 0.25 µg/mL; in series [2], at most 0.25 µg/mL; in series [3], at most 0.25 µg/mL; in series [5], 0.25 to 1 µg/mL (≈ 0.457 to 1.83 µM). The solubility at 24 h was 12.5 µg/mL (≈ 22.9 µM) in series [4] (setting [7]), 12.5 to 400 µg/mL (≈ 22.9 to 732 µM) in series [4] (setting [8]), 400 µg/mL (≈ 732 µM) in series [4] (setting [10]) and 400 to 800 µg/mL (≈ 732 to 1460 µM) in series [4] (setting [11]).
